Where two headings read alike, the source gives them in different places.
Columns and labels:
human μ-opioid receptor = target: T1, human μ-opioid receptor (Homo sapiens, UniProt P35372); experiment: Human μ-opioid receptor radioligand assay ([3H]-DAMGO); assay type: binding
T1 construct: expressed in transfected cells; host or cells: CHO-K1
Description: Human μ-Opioid Receptor Radioligand Assay
To investigate binding properties of test compounds to human μ-opioid receptor, transfected CHO-K1 cell membranes and [^3H]-DAMGO (Perkin Elmer, ES-542-C), as the radioligand, were used. The assay was carried out with 20 μg of membrane suspension, 1 nM of [^3H]-DAMGO in either absence or presence of either buffer or 10 μM Naloxone for total and non-specific binding, respectively. Binding buffer contained Tris-HCl 50 mM, MgCl2 5 mM at pH 7.4. Plates were incubated at 27° C. for 60 minutes. After the incubation period, the reaction mix was then transferred to MultiScreen HTS, FC plates (Millipore), filtered and plates were washed 3 times with ice-cold 10 mM Tris-HCL (pH 7.4). Filters were dried and counted at approximately 40% efficiency in a MicroBeta scintillation counter (Perkin-Elmer) using EcoScint liquid scintillation cocktail, preferably, transfected CHO-K1 cell membranes (20 μg) were incubated with 1 nM of [^3H]-DAMGO in assay buffer containing Tris-HCl 50 mM, MgCl2 5 mM at pH 7.4. NBS (non-specific binding) was measured by adding 10 μM Naloxone. The binding of the test compound was measured at five different concentrations. Plates were incubated at 27° C. for 60 minutes. After the incubation period, the reaction mix was then transferred to MultiScreen HTS, FC plates (Millipore), filtered and plates were washed 3 times with ice-cold 10 mM Tris-HCL (pH 7.4). Filters were dried and counted at approximately 40% efficiency in a MicroBeta scintillation counter (Perkin-Elmer) using EcoScint liquid scintillation cocktail.

[1] = target: Human α2δ-1 subunit of Cav2.2 calcium channel (Homo sapiens, UniProt P54289); experiment: Human α2δ-1 subunit of Cav2.2 calcium channel assay ([3H]-Gabapentin); assay type: binding
Description: Human α2δ-1 Subunit of Cav2.2 Calcium Channel Assay
Human α2δ-1 enriched membranes (2.5 μg) were incubated with 15 nM of radiolabeled [3H]-Gabapentin in assay buffer containing Hepes-KOH 10 mM, pH 7.4. NSB (non specific binding) was measured by adding 10 μM pregabalin. After 60 min incubation at 27° C., binding reaction was terminated by filtering through Multiscreen GF/C (Millipore) presoaked in 0.5% polyethyleneimine in Vacuum Manifold Station, followed by 3 washes with ice-cold filtration buffer containing 50 mM Tris-HCl, pH 7.4. Filter plates were dried at 60° C. for 1 hour and 30 μl of scintillation cocktail were added to each well before radioactivity reading. Readings were performed in a Trilux 1450 Microbeta radioactive counter (Perkin Elmer), i.e. Human α2δ-1 enriched membranes (2.5 μg) were incubated with 15 nM of radiolabeled [3H]-Gabapentin in assay buffer containing Hepes-KOH 10 mM, pH 7.4. NSB (non specific binding) was measured by adding 10 μM pregabalin. The binding of the test compound was measured at five different concentrations. After 60 min incubation at 27° C., binding reaction was terminated by filtering through Multiscreen GF/C (Millipore) presoaked in 0.5% polyethyleneimine in Vacuum Manifold Station, followed by 3 washes with ice-cold filtration buffer containing 50 mM Tris-HCl, pH 7.4. Filter plates were dried at 60° C. for 1 hour and 30 μl of scintillation cocktail were added to each well before radioactivity reading. Readings were performed in a Trilux 1450 Microbeta radioactive counter (Perkin Elmer).

[2] = transfected CHO-K1 cell membranes, 1 nM [3H]-DAMGO, read-out: Binding μ (Ki)
[3] = human α2δ-1 enriched membranes, 15 nM [3H]-Gabapentin, read-out: Binding α2δ-1 (Ki)

T1 sequence (P35372 whole entry): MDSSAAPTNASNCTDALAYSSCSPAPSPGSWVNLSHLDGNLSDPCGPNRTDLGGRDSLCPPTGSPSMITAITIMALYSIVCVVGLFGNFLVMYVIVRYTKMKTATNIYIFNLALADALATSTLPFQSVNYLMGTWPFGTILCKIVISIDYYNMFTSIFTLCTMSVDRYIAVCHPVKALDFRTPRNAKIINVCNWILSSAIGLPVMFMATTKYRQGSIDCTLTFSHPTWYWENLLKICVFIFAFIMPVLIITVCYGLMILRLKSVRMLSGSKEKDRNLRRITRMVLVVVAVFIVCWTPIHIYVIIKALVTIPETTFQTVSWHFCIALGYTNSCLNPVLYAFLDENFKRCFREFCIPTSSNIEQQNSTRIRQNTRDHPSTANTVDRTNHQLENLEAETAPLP
Sequence of Human α2δ-1 subunit of Cav2.2 calcium channel (P54289 25-1103): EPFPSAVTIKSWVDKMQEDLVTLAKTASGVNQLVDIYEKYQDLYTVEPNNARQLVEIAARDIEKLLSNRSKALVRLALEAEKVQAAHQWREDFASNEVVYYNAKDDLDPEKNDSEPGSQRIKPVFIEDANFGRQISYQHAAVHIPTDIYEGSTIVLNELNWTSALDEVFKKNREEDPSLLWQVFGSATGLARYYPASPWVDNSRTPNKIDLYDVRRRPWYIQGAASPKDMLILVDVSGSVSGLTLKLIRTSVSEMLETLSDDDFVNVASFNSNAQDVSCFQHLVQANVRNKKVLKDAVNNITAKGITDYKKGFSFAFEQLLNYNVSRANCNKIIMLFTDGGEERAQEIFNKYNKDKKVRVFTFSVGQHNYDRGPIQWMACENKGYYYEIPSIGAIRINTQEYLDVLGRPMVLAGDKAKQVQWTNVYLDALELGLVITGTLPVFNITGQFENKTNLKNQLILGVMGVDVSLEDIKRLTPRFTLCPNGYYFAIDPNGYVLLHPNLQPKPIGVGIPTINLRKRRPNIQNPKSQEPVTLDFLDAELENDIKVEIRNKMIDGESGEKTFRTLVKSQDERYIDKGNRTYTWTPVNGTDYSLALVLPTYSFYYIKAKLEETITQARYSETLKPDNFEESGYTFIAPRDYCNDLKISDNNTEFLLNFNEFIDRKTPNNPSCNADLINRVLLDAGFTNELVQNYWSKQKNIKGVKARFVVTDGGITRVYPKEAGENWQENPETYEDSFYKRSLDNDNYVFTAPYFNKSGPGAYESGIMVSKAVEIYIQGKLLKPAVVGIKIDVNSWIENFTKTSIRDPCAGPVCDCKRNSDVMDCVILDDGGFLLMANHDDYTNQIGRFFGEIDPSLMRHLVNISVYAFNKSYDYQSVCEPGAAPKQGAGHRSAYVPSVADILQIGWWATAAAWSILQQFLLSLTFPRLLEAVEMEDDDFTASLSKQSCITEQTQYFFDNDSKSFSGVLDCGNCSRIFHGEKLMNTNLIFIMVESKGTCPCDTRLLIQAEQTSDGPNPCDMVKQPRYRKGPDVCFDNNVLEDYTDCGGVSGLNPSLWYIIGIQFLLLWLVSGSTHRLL

Ki (human μ-opioid receptor; [2]) | Ki [1, 3] | Compound | Ki (human μ-opioid receptor) | Ki [1]
> 500 nM | 500 to 5000 nM | CNCCC(Oc1ccccc1-n1nc2c(N(C)CCOC)nnc(C)c2c1C)c1ccccc1 (centres unmarked) [Example 60, N-(2-methoxyethyl)-N,3,4-trimethyl-2-(2-(3-(methylamino)-1-phenylpropoxy)phenyl)-2H-pyrazolo[3,4-d]pyridazin-7-amine] |  | 
 |  | CNCCC(Oc1ccccc1-n1nc2c(N(C)C)nnc(C)c2c1C)c1cccc(O)c1 (centres unmarked) [Example 79, 3-(1-(2-(7-(Dimethylamino)-3,4-dimethyl-2H-pyrazolo[3,4-d]pyridazin-2-yl)phenoxy)-3-(methylamino)propyl)phenol] | 100 to 500 nM | 500 to 5000 nM
 |  | CNCCC(Oc1ccccc1-n1nc2c(N(C)C)nnc(C)c2c1C)c1cccs1 (centres unmarked) [Example 78, N,N,3,4-Tetramethyl-2-(2-(3-(methylamino)-1-(thiophen-2-yl)propoxy)phenyl)-2H-pyrazolo[3,4-d]pyridazin-7-amine] | 100 to 500 nM | 500 to 5000 nM
 |  | CNCCC(Oc1ccccc1-n1nc2c(N(C)C)nnc(C)c2c1C)c1cccc(F)c1 (centres unmarked) [Example 44, 2-(2-(1-(3-fluorophenyl)-3-(methylamino)propoxy)phenyl)-N,N,3,4-tetramethyl-2H-pyrazolo[3,4-d]pyridazin-7-amine] | 100 to 500 nM | < 500 nM
> 500 nM | 500 to 5000 nM | CNCCC(Oc1ccccc1-n1nc2c(N3CCCC3)nnc(C)c2c1C)c1ccccc1 (centres unmarked) [Example 36, 3-(2-(3,4-dimethyl-7-(pyrrolidin-1-yl)-2H-pyrazolo[3,4-d]pyridazin-2-yl)phenoxy)-N-methyl-3-phenylpropan-1-amine] |  | 
> 500 nM | 500 to 5000 nM | CNCCC(Oc1ccccc1-n1nc2c(N(C)C)nnc(C)c2c1C)c1cc(F)cc(F)c1 (centres unmarked) [Example 48, 2-(2-(1-(3,5-difluorophenyl)-3-(methylamino)propoxy)phenyl)-N,N,3,4-tetramethyl-2H-pyrazolo[3,4-d]pyridazin-7-amine] |  | 
> 500 nM | 500 to 5000 nM | CNCCC(Cc1ccccc1)Oc1ccccc1-n1nc2c(N(C)C)nnc(C)c2c1C (centres unmarked) [Example 77, N,N,3,4-tetramethyl-2-(2-((4-(methylamino)-1-phenylbutan-2-yl)oxy)phenyl)-2H-pyrazolo[3,4-d]pyridazin-7-amine] |  | 
> 500 nM | > 5000 nM | CNCCC(Oc1ccccc1-n1nc2c(Cc3noc(C)n3)nnc(C)c2c1C)c1ccccc1 (centres unmarked) [Example 64, 3-(2-(3,4-Dimethyl-7-((5-methyl-1,2,4-oxadiazol-3-yl)methyl)-2H-pyrazolo[3,4-d]pyridazin-2-yl)phenoxy)-N-methyl-3-phenylpropan-1-amine] |  | 
> 500 nM | 500 to 5000 nM | CNCCC(Oc1ccccc1-n1nc2c(N(C)C)nnc(C)c2c1C)c1cccc(C#N)c1 (centres unmarked) [Example 14, 3-(1-(2-(7-(dimethylamino)-3,4-dimethyl-2H-pyrazolo[3,4-d]pyridazin-2-yl)phenoxy)-3-(methylamino)propyl)benzonitrile] |  | 
 |  | CNCCC(Oc1ccccc1-n1nc2c(N(C)C)nnc(C)c2c1C)c1ccccc1 (centres unmarked) [Example 6, N,N,3,4-tetramethyl-2-(2-(3-(methylamino)-1-phenylpropoxy)phenyl)-2H-pyrazolo[3,4-d]pyridazin-7-amine] | 100 to 500 nM | 500 to 5000 nM
> 500 nM | > 5000 nM | CNCCC(Oc1ccc(C(=O)N(C)C)cc1-n1nc2c(N(C)C)nnc(C)c2c1C)c1ccccc1 (centres unmarked) [Example 96, 3-(7-(Dimethylamino)-3,4-dimethyl-2H-pyrazolo[3,4-d]pyridazin-2-yl)-N,N-dimethyl-4-(3-(methylamino)-1-phenylpropoxy)benzamide] |  | 
> 500 nM | 500 to 5000 nM | Cc1nnc(N(C)C)c2nn(-c3ccccc3OC3CCN(Cc4ccccc4)C3)c(C)c12 (centres unmarked) [Example 8, 2-(2-((1-benzylpyrrolidin-3-yl)oxy)phenyl)-N,N,3,4-tetramethyl-2H-pyrazolo[3,4-d]pyridazin-7-amine] |  | 

Compound | Ki (human μ-opioid receptor; [2]) | Ki [1, 3] | Ki (human μ-opioid receptor) | Ki [1]
CNCCCC(Oc1ccccc1-n1nc2c(N(C)C)nnc(C)c2c1C)c1ccccc1 (centres unmarked) [Example 46, N,N,3,4-tetramethyl-2-(2-(4-(methylamino)-1-phenylbutoxy)phenyl)-2H-pyrazolo[3,4-d]pyridazin-7-amine] | > 500 nM | 500 to 5000 nM |  | 
